Tests used:
Human Pit-2 = target: T1, Human Pit-2 (Homo sapiens, UniProt Q08357); assay: Pit-2 activity assay (33P phosphate uptake in CHO cells); format: cell-based; settings: n=1
T1 construct: expressed in transfected cells; host or cells: CHO cells, constitutive expression
T1 sequence (Q08357 1-652): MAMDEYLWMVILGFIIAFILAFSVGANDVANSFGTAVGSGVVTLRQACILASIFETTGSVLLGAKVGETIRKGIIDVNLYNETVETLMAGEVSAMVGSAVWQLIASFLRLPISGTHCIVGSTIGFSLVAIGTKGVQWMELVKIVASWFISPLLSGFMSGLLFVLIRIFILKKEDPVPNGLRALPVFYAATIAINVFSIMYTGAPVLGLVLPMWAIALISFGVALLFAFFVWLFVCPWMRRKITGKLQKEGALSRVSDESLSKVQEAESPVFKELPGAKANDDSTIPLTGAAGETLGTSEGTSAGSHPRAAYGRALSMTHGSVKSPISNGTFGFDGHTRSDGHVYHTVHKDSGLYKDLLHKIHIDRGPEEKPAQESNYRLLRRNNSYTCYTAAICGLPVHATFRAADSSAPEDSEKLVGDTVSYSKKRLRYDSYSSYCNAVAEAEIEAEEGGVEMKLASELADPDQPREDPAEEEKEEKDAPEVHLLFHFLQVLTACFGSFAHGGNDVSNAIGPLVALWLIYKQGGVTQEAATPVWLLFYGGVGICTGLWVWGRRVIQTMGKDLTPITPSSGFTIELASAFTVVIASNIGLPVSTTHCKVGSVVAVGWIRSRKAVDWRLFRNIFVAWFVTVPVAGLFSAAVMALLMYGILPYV
Protocol: Generation of constitutive human Pit-2 and SGLT1 overexpressing CHO cells and activity assays measuring the uptake of ^33P phosphate for 45 minutes at 20°C for Pit-2 and ^14C-α-methyl-D-glucopyranoside for 120 minutes at 37°C for SGLT1, were also described previously.

[1] = tested on: acute phosphate uptake into plasma; assay: Acute radiolabeled phosphate uptake into plasma in mice; format: in vivo
Protocol: A dosing solution for a 10 mg/kg dose of LY3304000 using a 10 mL/kg dosing volume was made in 1% HEC vehicle. The subsequent dosing solutions for 3, 1, 0.3, 0.1, 0.03, 0.01, 0.003, and 0.001 mg/kg were prepared by serial dilutions with HEC. A Radiolabeled Phosphate Dosing Solution was made in a 16.25 mM Na2HPO4, 0.9% saline, pH 7.4, solution with the addition of about 2.5 μCi/mL radioactive phosphate (H3^33PO4, PerkinElmer) and filtered before dosing. Following 12-hour fasting with access to water, male SD rats were orally dosed at 10 mL/kg with either vehicle or varying doses of LY3304000. Fifteen minutes later, 2 mL of the Radiolabeled Phosphate Dosing Solution was dosed by oral gavage. This dose of phosphate was chosen because it approximates the rat equivalent to the amount of bioavailable phosphate in a human meal, 4 mg/kg phosphorus, or 320 mg phosphorus for an 80 kg person on a phosphate restricted diet. Fifteen minutes later, blood was collected by cardiac stick, and plasma was prepared. Radioactivity (dpm) in 50 μL plasma was measured by scintillation counting. To determine the total radioactivity dosed to each rat, the radioactivity in two 10-μL samples of the Radiolabeled Phosphate Dosing Solution was measured by scintillation counting. To calculate the total radioactivity recovered in plasma, it was assumed that total blood volume constitutes about 60% of the body weight and plasma constitutes about 55% of the total blood. The mole amount of phosphate uptake was calculated as the percentage of administered radiolabeled phosphate recovered in the plasma of vehicle or LY3304000 treated rats multiplied by total phosphate amount in the radiolabeled phosphate dosing solution. ED50 values were then determined with a 4-parameter logistic curve fitting model using GraphPad Prism. A 15-minute time point, post phosphate dosing, was chosen for collecting blood in the acute phosphate uptake studies in rats and mice (see below) to capture the initial rate of phosphate absorption. We wanted to avoid measurements at longer time points when plasma radiolabeled phosphate appears to be at a steady state. LY3304000 dosing solution and Radioactive Phosphate Dosing Solution were made as described above. Following 12-hour fasting with access to water, male C57Bl/6 mice were dosed orally at 10 mL/kg with either vehicle or varying doses of LY3304000. Fifteen minutes later, 200 μL of the Radiolabeled Phosphate Dosing Solution was dosed by oral gavage. Fifteen minutes later, blood was collected by cardiac stick, and plasma was prepared. The measurement of acute phosphate uptake was determined as described above for rats.

[2] = tested on: Madin-Darby Canine Kidney (MDCK) cell; assay: MDCK cell uni-directional permeability assay; format: in vitro ADME; settings: 20 µM, one hour, 24-well format
Protocol: LY3304000 has very low in vitro cell permeability. In a standard Madin-Darby Canine Kidney (MDCK) cell uni-directional permeability assay, measuring the percentage A to B (% A-B) transport in a 24-well format, the % A-B of LY330400 transport is 0.16 % at 20 µM for the assay duration of one hour.

CN1Cc2c(Cl)cc(Cl)cc2[C@H](c2cccc(S(=O)(=O)NCCOCCOCCN/C(=N\C(N)=O)NCCCCN/C(=N/C(N)=O)NCCOCCOCCNS(=O)(=O)c3cccc([C@@H]4CN(C)Cc5c(Cl)cc(Cl)cc54)c3)c2)C1.Cl.Cl [LY3304000, (Z)-[[4-[[(Z)-N’-carbamoyl-N-[2-[2-[2-[[3-[(4S)-6,8-dichloro-2-methyl-3,4-dihydro-1H-isoquinolin-4-yl]phenyl]sulfonylamino]ethoxy]ethoxy]ethyl]carbamimidoyl]amino]butylamino]-[2-[2-[2-[[3-[(4S)-6,8-dichloro-2-methyl-3,4-dihydro-1H-isoquinolin-4-yl]phenyl]sulfonylamino]ethoxy]ethoxy]ethylamino]methylene]urea dihydrochloride]
IC50 (Human Pit-2): > 100 µM
ED50 ([1]; Mus musculus, po, 0.25 h, oral, plasma 15 min post 33P phosphate, read-out: ED50 (increase of phosphate uptake)): 0.48 mg/kg
Emax, Pi uptake ([1]; curve fit): 80.01 nmol
radiolabeled phosphate recovered in plasma ([1]; highest doses tested, vehicle 39 nmoles): 78 nmol
ED50 (increase of phosphate uptake) ([1]; oral, plasma 15 min post 33P phosphate): 0.479 mg/kg
percentage A to B (% A-B) transport [2]: 0.16%
